According to EP3714904B1, “IMINODIACETIC ACID SUBSTITUTED CYCLODEXTRINS AS POTENTIATORS OF BETA-LACTAM ANTIBIOTICS” (NATIONAL CENTER FOR SCIENTIFIC RESEARCH "DEMOKRITOS" (NCSRD), priority 2019, dated 2020):

How the values were obtained:
[1] = tested on: MBL producing clinical strains; assay: MIC potentiation over the whole collection of isolates; type: cell-based; settings: 50 µM β-IDACYD
Experimental: Further the in-vitro inhibitory activity of IDACYDs was tested against highly resistant pathogens. Tables 3, 4 and 5 show the effect of IDACYDs using a collection of 36 highly resistant Gram negative strains (Table 2, Kirby-Bauer disc diffusion method) producing NDM, VIM and IMP type MBLs as well as 6 isolates expressing serine beta-lactamases (ESBLs, AmpCs). […] Clinical isolates co-expressing ESBLs and/or AmpC β-lactamases along with MBLs where re-sensitized to both imipenem and meropenem, as expected. Table 2: Collection of clinical isolates used for in-vitro evaluation

[2] = Plasma levels of metal ions, creatinine and urea in infected mice; type: in vivo, CD-1 mice; settings: 30 mg/kg meropenem + 20 mg/kg β-IDACYD every 2 h for 24 h, 0 h, 6 h, 140 h
Experimental: Example 10. Examination of the cross-reactivity of β-IDACYD with vital metal ions in mouse plasma and of induction of immune responses in infected mice: In order to examine a potential cross-reactivity of the β-IDACYD with metal ions necessary for the maintenance of homeostasis, plasma was isolated by centrifugation (3,000 rpm, 5 min) from all blood samples collected. The plasma levels of four metal ions (calcium, magnesium, phosphate and iron) as well as the levels of creatinine and urea were determined using an Olympus AU 600 analyser. […] In Fig. 8 is shown the plasma concentration in mg/dL of calcium, iron, phosphate and magnesium ions, as well as urea and creatinine derived from CD-1 mice infected with a lethal dose (10^7 CFU) of NDM-1 producing K. pneumoniae strain LA26. […] Treatment was given every 2h for a 24h period and blood was drawn and plasma was isolated at time points 0h, 6h, 24h and 140h (7d) post treatment initiation.

[3] = Luminex assay of lymphokines, cytokines and pro-inflammatory proteins in plasma of infected mice; type: in vivo; settings: plasma from all the sepsis therapeutic schemes
Description: As a way to further measure and evaluate the in-vivo potency and safety of β-IDACYD, we determined the levels of a series of lymphokines, cytokines, and pro-inflammatory indicator proteins. The levels of Th17 immune response related ILs 17E, 6, 1β, 4, 21, 10, 17A, 17F, IFN-g, MIP-3a, TNF-a and TNF-b were all determined in a luminex assay using plasma isolated from the mice involved in all the sepsis therapeutic schemes. […] The observation was supported by the levels of the inflammatory response proteins CRP and SAP.

CO[C@@H]1[C@@H](OC)[C@H]2O[C@H]3[C@H](OC)[C@@H](OC)[C@@H](O[C@H]4[C@H](OC)[C@@H](OC)[C@@H](O[C@H]5[C@H](OC)[C@@H](OC)[C@@H](O[C@H]6[C@H](OC)[C@@H](OC)[C@@H](O[C@H]7[C@H](OC)[C@@H](OC)[C@@H](O[C@H]8[C@H](OC)[C@@H](OC)[C@@H](O[C@@H]1[C@@H](CN(CC(=O)O)CC(=O)O)O2)O[C@@H]8CN(CC(=O)O)CC(=O)O)O[C@@H]7CN(CC(=O)O)CC(=O)O)O[C@@H]6CN(CC(=O)O)CC(=O)O)O[C@@H]5CN(CC(=O)O)CC(=O)O)O[C@@H]4CN(CC(=O)O)CC(=O)O)O[C@@H]3CN(CC(=O)O)CC(=O)O [β-IDACYD]
reduction of meropenem's and imipenem's minimum inhibitory concentration (MIC) [1]: up to 256 fold
plasma levels of calcium, magnesium, phosphate, iron, creatinine and urea [2]: well within the control group range at all times
immune response (Th17 related ILs, IFN-g, MIP-3a, TNF-a, TNF-b; CRP, SAP) [3]: at no times induced an immune response
